From patent publication US12421225B2, “Heteroaromatic amide derivative and medicament containing the same” (KAKEN PHARMACEUTICAL CO., LTD., priority 2018, dated 2025)

Molecular target: human Nav1.7 (Homo sapiens (Human), UniProt Q15858)
Experiment: Human Nav1.7 inhibitory activity evaluation (automated patch clamp QPatch16X, HEK293A cells stably expressing human Nav1.7 and human Navβ1)
Type: cell-based
Details: HEK293A cells stably expressing human Nav1.7 and human Navβ1, automated patch clamp QPatch16X
Description: Test Example 1: Human Nav1.7 Inhibitory Activity Evaluation
A cell line in which human Nav1.7 and human Navβ1 subunits were stably expressed in HEK293A cells was used. Dulbecco's Modified Eagle Medium (DMEM) supplemeted with 10% fetal bovine serum, 600 μg/ml geneticin, and 2 μg/ml blasticidin S were used as culture medium under the conditions of 37° C. and 5% CO2 in T175 flasks to carry out culturing. When 60-80% confluence was reached, the cells were detached and a cell suspension of about 0.5-5.0×10^6 cells/mL was prepared. The amount of current through human Nav1.7 was recorded using a fully automatic patch clamp device QPatch16X (Sophion Biosciences) at room temperature. As the extracellular solution, the solution of 145 mM NaCl, 4 mM KCl, 1 mM MgCl2, 2 mM CaCl2, 10 mM Glucose, 10 mM 4-(2-hydroxyethyl)-1-piperazine ethanesulfonic acid (HEPES) at pH 7.4 was used. As the intracellular solution, the solution of 135 mM CsF, ⅕ mM glycol ether diaminetetraacetic acid (EGTA)/CsOH, 10 mM HEPES, 10 mM NaCl at pH 7.3 was used. The test compounds were dissolved in dimethyl sulfoxide (DMSO) and diluted with the extracellular solution to attain the DMSO concentration of 0.1% at the time of assay.
The current response was obtained at a sampling frequency of 25 kHz, and noise was removed with a 3 kHz low-pass filter. The holding potential was −100 mV. Correction of the leakage current was carried out by applying a step pulse of −120 mV before the test pulse. In order to investigate inhibitory action of the test compound, the following test pulse was given: Namely, after depolarizing pulse of −10 mV was applied for 50 milliseconds, it was fixed at −120 mV for 500 milliseconds; a potential at which about 30-40% of the channel was inactivated was maintained for 15 seconds, then fixed again at −120 mV for 100 milliseconds, and finally a −10 mV depolarization pulse was given for 50 milliseconds. Test pulses were given before and after the test compound addition.
The inhibitory activity of the test compound was determined based on the amount of inward current generated by the second depolarization pulse, and the 50% inhibitory concentration (IC50) was calculated from the concentration-response curve.

Sequence of human Nav1.7 (Q15858 whole entry): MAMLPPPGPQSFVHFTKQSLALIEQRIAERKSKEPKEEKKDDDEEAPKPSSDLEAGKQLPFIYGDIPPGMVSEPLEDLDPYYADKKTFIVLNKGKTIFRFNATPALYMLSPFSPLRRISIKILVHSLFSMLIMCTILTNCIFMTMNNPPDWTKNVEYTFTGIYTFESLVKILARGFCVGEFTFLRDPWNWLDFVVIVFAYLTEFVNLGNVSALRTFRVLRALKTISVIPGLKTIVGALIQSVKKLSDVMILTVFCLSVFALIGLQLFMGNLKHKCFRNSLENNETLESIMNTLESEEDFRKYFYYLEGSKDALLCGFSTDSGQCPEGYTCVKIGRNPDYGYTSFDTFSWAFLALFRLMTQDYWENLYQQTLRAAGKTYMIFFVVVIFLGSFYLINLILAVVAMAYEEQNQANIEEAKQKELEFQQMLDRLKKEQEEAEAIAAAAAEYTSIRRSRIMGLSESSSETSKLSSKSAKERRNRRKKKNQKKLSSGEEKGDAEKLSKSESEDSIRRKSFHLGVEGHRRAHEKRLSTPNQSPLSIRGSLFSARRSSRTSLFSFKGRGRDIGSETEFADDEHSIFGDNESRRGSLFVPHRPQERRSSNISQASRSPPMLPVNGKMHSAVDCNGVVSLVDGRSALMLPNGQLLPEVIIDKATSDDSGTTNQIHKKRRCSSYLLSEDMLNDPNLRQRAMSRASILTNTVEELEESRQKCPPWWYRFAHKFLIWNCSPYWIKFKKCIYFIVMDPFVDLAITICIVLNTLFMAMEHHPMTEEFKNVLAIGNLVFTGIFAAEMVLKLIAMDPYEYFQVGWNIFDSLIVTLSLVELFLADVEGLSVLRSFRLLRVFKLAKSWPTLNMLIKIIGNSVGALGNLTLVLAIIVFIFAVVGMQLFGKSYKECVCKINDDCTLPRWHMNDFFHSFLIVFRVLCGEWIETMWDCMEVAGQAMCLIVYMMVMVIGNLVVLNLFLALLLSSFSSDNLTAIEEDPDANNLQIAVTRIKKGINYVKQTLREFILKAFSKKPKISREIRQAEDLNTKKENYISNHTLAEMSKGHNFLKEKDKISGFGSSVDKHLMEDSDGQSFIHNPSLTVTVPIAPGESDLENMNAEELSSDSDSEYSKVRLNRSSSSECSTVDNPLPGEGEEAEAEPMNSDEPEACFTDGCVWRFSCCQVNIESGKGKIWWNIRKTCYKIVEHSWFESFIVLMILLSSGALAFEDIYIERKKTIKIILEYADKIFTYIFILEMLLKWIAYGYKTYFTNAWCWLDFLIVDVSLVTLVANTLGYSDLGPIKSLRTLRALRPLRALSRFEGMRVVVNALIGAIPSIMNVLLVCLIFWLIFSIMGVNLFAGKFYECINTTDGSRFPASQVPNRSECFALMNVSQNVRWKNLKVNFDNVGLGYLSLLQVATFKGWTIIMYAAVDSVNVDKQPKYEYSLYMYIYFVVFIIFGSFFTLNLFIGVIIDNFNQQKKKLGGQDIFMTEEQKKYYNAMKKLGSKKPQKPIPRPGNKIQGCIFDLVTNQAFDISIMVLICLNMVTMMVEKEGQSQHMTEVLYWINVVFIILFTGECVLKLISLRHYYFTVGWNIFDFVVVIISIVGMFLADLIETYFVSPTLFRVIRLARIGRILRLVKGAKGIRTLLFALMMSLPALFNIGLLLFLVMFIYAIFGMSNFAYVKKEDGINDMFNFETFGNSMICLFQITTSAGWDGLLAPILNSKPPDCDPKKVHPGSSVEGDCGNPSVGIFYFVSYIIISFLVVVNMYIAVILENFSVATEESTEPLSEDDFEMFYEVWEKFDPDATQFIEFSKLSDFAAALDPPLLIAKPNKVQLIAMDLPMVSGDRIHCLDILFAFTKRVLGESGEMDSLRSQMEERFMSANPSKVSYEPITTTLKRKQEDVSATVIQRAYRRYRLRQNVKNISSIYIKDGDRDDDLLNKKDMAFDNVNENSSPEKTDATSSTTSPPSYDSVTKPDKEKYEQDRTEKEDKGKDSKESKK
Sequence of human Nav1.7 (Q07699 19-218 partner): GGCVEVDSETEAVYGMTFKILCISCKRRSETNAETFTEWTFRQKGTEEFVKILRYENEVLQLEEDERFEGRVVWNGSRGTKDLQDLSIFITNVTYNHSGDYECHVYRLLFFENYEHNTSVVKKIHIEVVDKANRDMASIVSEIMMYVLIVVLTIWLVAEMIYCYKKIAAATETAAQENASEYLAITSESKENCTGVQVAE

SMILES	IC50
O=C(NC1COc2cccc(C3CC3)c2C1)c1cn2c(n1)CCC(C(F)(F)F)C2 (centres unmarked) [Example 10]	< 10 µM
COc1ccc2c(c1)CC(NC(=O)c1cn3c(n1)CCC(C(F)(F)F)C3)CO2 (centres unmarked) [Example 13]	< 10 µM
COc1cccc(-c2c(C(=O)N[C@H]3COc4ccccc4C3)nc3n2CC(C(F)(F)F)CC3)n1 (some centres unmarked) [Example 15]	< 1 µM
O=C(N[C@H]1COc2ccc(Cl)cc2C1)c1nc2n(c1-c1ccccn1)CCCC2 [Example 18, (R)—N-(6-chlorochroman-3-yl)-3-(pyridin-2-yl)-5,6,7,8-tetrahydroimidazo[1,2-a]pyridine-2-carboxamide]	< 1 µM
O=C(N[C@H]1COc2ccccc2C1)c1cn2c(n1)CCC(C1CCCC1)C2 (some centres unmarked) [Example 24]	< 1 µM
O=C(c1cn2c(n1)CCC(C1CCCCC1)C2)N1CCC1Cc1ccccc1 (centres unmarked) [Example 31]	< 1 µM
O=C(N[C@H]1COc2ccccc2C1)c1cn2c(n1)CCC(NCc1ccccc1)C2 (some centres unmarked) [Example 42]	< 10 µM
CN1Cc2nc(C(=O)N[C@H]3COc4ccccc4C3)cn2CC1c1ccc(F)c(F)c1 (some centres unmarked) [Example 45]	< 10 µM
CC(C)CCC1Cn2cc(C(=O)N[C@H]3COc4ccccc4C3)nc2CN1C (some centres unmarked) [Example 50]	< 10 µM
O=C(N[C@H]1COc2ccccc2C1)c1cn2c(n1)CNC(CCc1ccc(F)cc1)C2 (some centres unmarked) [Example 53]	< 10 µM
CN1Cc2nc(C(=O)N[C@H]3COc4ccccc4C3)cn2CC1CCc1ccc(F)cc1 (some centres unmarked) [Example 54]	< 10 µM
O=C(N[C@H]1COc2ccccc2C1)c1cn2c(n1)CNC(c1ccccc1)C2 (some centres unmarked) [Example 56]	< 10 µM
CN1Cc2nc(C(=O)N3CC(Oc4cccc(C(F)(F)F)n4)C3)cn2CC1c1ccccc1 (centres unmarked) [Example 63]	< 10 µM
COc1cccc(-c2c(C(=O)N[C@H]3COc4ccccc4C3)nn3c2CCCC3)n1 [Example 69]	< 10 µM
COc1cc(C2CCn3nc(C(=O)N[C@H]4COc5ccc(C#N)cc5C4)cc3O2)ccn1 (some centres unmarked) [Example 73]	< 10 µM
O=C(N[C@H]1COc2ccc(CO)cc2C1)c1cc2n(n1)CCC(c1ccccc1F)O2 (some centres unmarked) [Example 82]	< 10 µM
C[C@H]1CCn2nc(C(=O)N[C@H]3COc4ccc(Br)cc4C3)cc2O1 [Example 88]	< 1 µM
C[C@@H]1CCn2nc(C(=O)N[C@H]3COc4ccc(Br)cc4C3)cc2O1 [Example 89]	< 1 µM
CCC1CCn2nc(C(=O)N[C@H]3COc4ccc(-c5cnc(OC)nc5)cc4C3)cc2O1 (some centres unmarked) [Example 93]	< 1 µM
N#Cc1ccc2c(c1)C[C@@H](NC(=O)c1cc3n(n1)CCC(COCc1ccccc1)O3)CO2 (some centres unmarked) [Example 99]	< 1 µM
N#Cc1ccc2c(c1)C[C@@H](NC(=O)c1cc3n(n1)CCC(COCc1cccc(F)c1)O3)CO2 (some centres unmarked) [Example 104]	< 1 µM
O=C(N[C@H]1COc2ccc(Cl)cc2C1)c1cc2n(n1)CCC(COCC1CC1)O2 (some centres unmarked) [Example 106]	< 1 µM
N#Cc1ccc(-c2ccc3c(c2)C[C@@H](NC(=O)c2cc4n(n2)CCC(COCC2CC2)O4)CO3)cn1 (some centres unmarked) [Example 107]	< 10 µM
N#Cc1ccc2c(c1)C[C@@H](NC(=O)c1cc3n(n1)CCC(COC(C(F)(F)F)C(F)(F)F)O3)CO2 (some centres unmarked) [Example 116]	< 1 µM
N#Cc1ccc2c(c1)C[C@@H](NC(=O)c1cc3n(n1)CCC(CSc1ccccc1)O3)CO2 (some centres unmarked) [Example 119]	< 1 µM
O=C(N[C@H]1COc2ccc(Cl)cc2C1)c1cc2n(n1)CCC(COc1ccncc1)O2 (some centres unmarked) [Example 120]	< 10 µM
CN(Cc1ccccc1)CC1CCn2nc(C(=O)N[C@H]3COc4ccc(Cl)cc4C3)cc2O1 (some centres unmarked) [Example 121]	< 10 µM
N#Cc1ccc(-c2ccc3c(c2)C[C@@H](NC(=O)c2cc4n(n2)CCC(COCC(F)(F)F)O4)CO3)cn1 (some centres unmarked) [Example 132]	< 10 µM

Same assay, conditions: human Nav1.7, automated patch clamp

SMILES	IC50
O=C(N[C@H]1COc2ccc(C(F)(F)F)cc2C1O)c1cc2n(n1)CC(CSCC(F)(F)F)O2 (single isomer, unassigned) [641 (isomer A)]	< 10 µM
O=C(N[C@H]1COc2ccc(C(F)(F)F)cc2C1O)c1cc2n(n1)CCC(OCCOCC(F)(F)F)CO2 (single isomer, unassigned) [Example 681]	< 10 µM
N#Cc1ccc2c(c1)C[C@@H](NC(=O)c1cc3n(n1)C[C@H](CC1CCOCC1)O3)CO2 (single isomer, unassigned; isomer a) [577(isomer A)]	< 10 µM
O=C(N[C@H]1COc2ccc(CC(F)F)cc2C1)c1cc2n(n1)C[C@H](CC1CCOCC1)O2 (single isomer, unassigned; isomer a) [590(isomer A)]	< 1 µM
COC1c2cc(C(F)(F)F)ccc2OC[C@@H]1NC(=O)c1cc2n(n1)CCC(COCC(F)(F)F)O2 (single isomer, unassigned; isomer a) [598(isomer A)]	< 1 µM
CC(C)(F)C1CCn2nc(C(=O)N[C@H]3COc4ccc(Cl)cc4C3)cc2O1 (some centres unmarked) [Example 166]	< 1 µM
COc1ncc(-c2ccc3c(c2)C[C@@H](NC(=O)c2cc4n(n2)CCC(C(F)(F)F)O4)CO3)cn1 (some centres unmarked) [Example 176]	< 10 µM
CC1(C)CCn2nc(C(=O)N[C@H]3COc4ccc(-c5ccc(C#N)nc5)cc4C3)cc2O1 [Example 179]	< 10 µM
N#Cc1ccc2c(c1)C[C@@H](NC(=O)c1cc3n(n1)CCC1(CCC1)O3)CO2 [Example 180]	< 10 µM
O=C(N[C@H]1COc2ccc(COCC(F)(F)F)cc2C1)c1cc2n(n1)CC(C(F)(F)F)O2 (some centres unmarked) [Example 183]	< 10 µM
O=C(N[C@H]1COc2ccc(CC(F)(F)F)cc2C1)c1cc2n(n1)CC(COCC(F)(F)F)O2 (some centres unmarked) [Example 191]	< 1 µM
Cc1cnc(-c2ccc3c(c2)C[C@@H](NC(=O)c2cc4n(n2)CC(COCC(F)(F)F)O4)CO3)cn1 (some centres unmarked) [Example 193]	< 10 µM
O=C(N[C@H]1COc2ccc(CC(F)F)cc2C1)c1cc2n(n1)CC(CCOC(F)(F)F)O2 (some centres unmarked) [Example 210]	< 1 µM
O=C(N[C@H]1COc2ccc(CCOC(F)F)cc2C1)c1cc2n(n1)CC(CCOC(F)F)O2 (some centres unmarked) [Example 216]	< 1 µM
O=C(N[C@H]1COc2ccc(C(F)(F)F)cc2C1)c1cc2n(n1)CC(CCN1CC(F)(F)C1)O2 (some centres unmarked) [Example 235]	< 10 µM
O=C(N[C@H]1COc2ccc(CCOC(F)F)cc2C1)c1cc2n(n1)CC(CCN1CC(F)(F)C1)O2 (some centres unmarked) [Example 237]	< 1 µM
O=C(N[C@H]1COc2ccc(CCOC(F)(F)F)cc2C1)c1cc2n(n1)CC(CCN1CC(F)(F)C1)O2 (some centres unmarked) [Example 239]	< 1 µM

SMILES	IC50
O=C(N[C@H]1COc2ccc(C(F)(F)F)cc2C1)c1nn2c(c1-c1ccn[nH]1)OCC2 [Example 249]	< 10 µM
CC1(C)Cn2nc(C(=O)N[C@H]3COc4ccc(C(F)(F)F)cc4C3)c(-c3ccn[nH]3)c2O1 [Example 250]	< 10 µM
O=C(N[C@H]1COc2ccc(C(F)(F)F)cc2C1)c1nn2c(c1-c1ccn[nH]1)COCC2 [Example 259, (R)-3-(1H-pyrazol-5-yl)-N-(6-(trifluoromethyl)chroman-3-yl)-6,7-dihydro-4H-pyrazolo[5,1-c][1,4]oxazine-2-carboxamide]	< 1 µM
O=C(NC1COc2ccc(C(F)(F)F)cc2C1)c1cc2n(n1)CCN(CCC1CC1)C2 (centres unmarked) [Example 264]	< 1 µM
N#Cc1ccc2c(c1)C[C@@H](NC(=O)c1cc3n(n1)CCN(CCc1ccc(F)cc1)C3)CO2 [Example 269]	< 1 µM
CC(C)CN1CCn2nc(C(=O)N[C@H]3COc4ccc(C#N)cc4C3)cc2C1 [Example 270]	< 10 µM
N#Cc1ccc2c(c1)C[C@@H](NC(=O)c1cc3n(n1)CCN(C1CCCC1)C3)CO2 [Example 271]	< 10 µM
O=C(N[C@H]1COc2ccc(Cl)cc2C1)c1cc2n(n1)CCN(CCOc1ccccn1)C2 [Example 274]	< 10 µM
COc1cc(C2(N3CCn4nc(C(=O)N[C@H]5COc6ccc(C#N)cc6C5)cc4C3)CC2)ccn1 [Example 286]	< 10 µM
C=Cc1cccc2c1CC(NC(=O)c1cn3c(n1)CCC(C(F)(F)F)C3)CO2 (centres unmarked) [Example 293]	< 10 µM
CCOCc1cccc2c1CC(NC(=O)c1cn3c(n1)CCC(C(F)(F)F)C3)CO2 (centres unmarked) [Example 296]	< 10 µM
N#CCc1cccc2c1CC(NC(=O)c1cn3c(n1)CCC(C(F)(F)F)C3)CO2 (centres unmarked) [Example 297]	< 10 µM
O=C(N[C@H]1COc2ccccc2C1)c1nc2n(c1-c1ccccc1)CC(C(F)(F)F)CC2 (some centres unmarked) [Example 299]	< 1 µM
N#Cc1c(C(=O)N[C@H]2COc3ccccc3C2)nc2n1CC(C(F)(F)F)CC2 (some centres unmarked) [Example 300]	< 10 µM
O=C(N[C@H]1COc2ccccc2C1)c1nc2n(c1CCCO)CC(C(F)(F)F)CC2 (some centres unmarked) [Example 301]	< 10 µM
C=Cc1c(C(=O)N[C@H]2COc3ccccc3C2)nc2n1CC(C(F)(F)F)CC2 (some centres unmarked) [Example 302]	< 10 µM
O=C(N[C@H]1COc2ccc(CCOC(F)(F)F)cc2C1)c1nc2n(c1-c1ccccn1)CCCC2 [Example 306]	< 1 µM
